The text below walks through data of patent US20240216335A1, “COMPOSITION FOR INCREASING LEUKOCYTES AND/OR BASOPHILS” (SUNTORY HOLDINGS LIMITED, priority 2021, published 2024).

Assay [1] has as its system blood leukocytes and basophils. The experiment in a line: Study on evaluation of blood leukocyte count and basophil count in humans (placebo-controlled, randomized, double-blind, parallel-group). It counts as in vivo. The following applies: one capsule with 20 mg L-ergothioneine per day orally for four weeks, week 4 vs pre-testing, compared with control food group. Here is the method: In order to evaluate the influence of supplements containing ergothioneine on blood leukocyte count and basophil count in humans, a placebo-controlled, randomized, double-blind, parallel-group study was conducted on subjects including male and female adults (46 subjects in a test food group; 46 subjects in a control food group; 92 subjects in total). In this study, one capsule containing 20 mg ergothioneine (test food) or one capsule not containing ergothioneine (control food) was fed per day for four weeks. The blood leukocyte count and basophil count in each subject were measured for pre-testing before starting the study (before starting ingestion of the test food or control food). After ingestion of the test food or control food for four weeks, the blood leukocyte count and basophil count in each subject were measured again (testing on week 4). […] Specifically, the amount of change in the test food group at the time of testing on week 4 was determined for the test food group by subtracting the blood leukocyte count (average) at the time of pre-testing from the blood leukocyte count (average) at the time of testing on week 4. Similarly, the amount of change at the time of testing on week 4 was determined for the control food group by subtracting the blood leukocyte count (average) at the time of pre-testing from the blood leukocyte count (average) at the time of testing on week 4. […]

Assay [2] concerns the target T1, recombinant human epidermal growth factor receptor (EGFR) tyrosine kinase (Homo sapiens, UniProt P00533).
T1 construct: host or cells: insect cells
The experiment in a line: Evaluation of activity to inhibit substrate binding of EGFR tyrosine kinase ([32P]Poly(Glu:Tyr) formation, Eurofins Panlabs). The following applies: 100 or 1000 μM L-ergothioneine, HEPES buffer pH 7.4, 37° C., 10 μM ATP, 0.2 mg/mL Poly(Glu:Tyr). In kind it is biochemical. As for the experimental part: The study was commissioned to Eurofins Panlabs. The study was performed using recombinant human epidermal growth factor receptor (EGFR) tyrosine kinase expressed in insect cells. First, epidermal growth factor receptor (EGFR) tyrosine kinase (0.134 μg/mL) was incubated in HEPES buffer (pH 7.4) with 100 or 1000 μM L-ergothioneine at 37° C. for 15 minutes. Then, 0.2 mg/mL Poly(Glu:Tyr), 10 μM ATP, and 0.25 μCi [γ^32P] ATP were added. Thereby, an enzymatic reaction was initiated. After incubating at 37° ° C. for 30 minutes, 3% H3PO4 was added to terminate the reaction. Lastly, the activity of ergothioneine to inhibit substrate binding was evaluated using the amount of [^32P]Poly(Glu:Tyr) formed in the reaction as an index.

For assay [3] the following is noted: mice orally administered with ergothioneine vs mice not administered; cited from earlier work.
Assay [4] deals with IL-6, IL-12p40, IL-1β, and IL-10. The following applies: absence of the TLR ligand, ergothioneine concentration 0 or 10 mM; cited from earlier work.

Structures are written as SMILES.

T1 sequence (P00533 25-1210): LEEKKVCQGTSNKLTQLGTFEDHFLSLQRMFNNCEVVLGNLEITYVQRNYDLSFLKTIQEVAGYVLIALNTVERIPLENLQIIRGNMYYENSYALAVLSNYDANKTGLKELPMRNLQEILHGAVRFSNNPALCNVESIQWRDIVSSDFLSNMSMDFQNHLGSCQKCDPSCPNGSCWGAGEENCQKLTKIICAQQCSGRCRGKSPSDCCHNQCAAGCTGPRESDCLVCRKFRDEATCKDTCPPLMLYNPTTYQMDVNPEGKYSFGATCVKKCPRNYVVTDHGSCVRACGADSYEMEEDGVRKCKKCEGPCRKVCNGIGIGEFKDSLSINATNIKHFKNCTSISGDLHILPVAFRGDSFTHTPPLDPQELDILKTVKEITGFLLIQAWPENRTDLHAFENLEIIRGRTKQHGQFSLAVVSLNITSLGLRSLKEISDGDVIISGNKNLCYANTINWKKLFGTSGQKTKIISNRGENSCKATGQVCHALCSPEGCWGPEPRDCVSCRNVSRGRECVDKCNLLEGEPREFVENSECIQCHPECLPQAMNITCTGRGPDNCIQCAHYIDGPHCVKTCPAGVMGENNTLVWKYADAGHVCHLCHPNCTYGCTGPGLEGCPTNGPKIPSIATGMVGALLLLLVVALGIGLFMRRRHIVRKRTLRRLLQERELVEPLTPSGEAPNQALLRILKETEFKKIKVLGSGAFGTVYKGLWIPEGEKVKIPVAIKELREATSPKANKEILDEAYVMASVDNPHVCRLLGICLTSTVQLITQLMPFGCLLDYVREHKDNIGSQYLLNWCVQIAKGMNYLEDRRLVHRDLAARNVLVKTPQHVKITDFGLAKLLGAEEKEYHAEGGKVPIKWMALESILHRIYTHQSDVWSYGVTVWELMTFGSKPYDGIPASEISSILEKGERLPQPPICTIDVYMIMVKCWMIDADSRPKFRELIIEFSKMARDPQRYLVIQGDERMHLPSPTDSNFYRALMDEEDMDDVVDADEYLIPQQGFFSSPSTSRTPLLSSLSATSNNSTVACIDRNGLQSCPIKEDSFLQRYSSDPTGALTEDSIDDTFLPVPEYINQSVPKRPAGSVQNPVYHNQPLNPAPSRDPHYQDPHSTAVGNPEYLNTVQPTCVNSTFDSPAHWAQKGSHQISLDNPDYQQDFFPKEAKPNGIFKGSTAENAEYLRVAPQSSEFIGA

On to `C[N+](C)(C)[C@@H](Cc1c[nH]c(=S)[nH]1)C(=O)[O-]` [L-ergothioneine], for which, in assay [1], the “amount of change in blood basophil count (Δ in basophils (%))” value is given as “significantly increased” and the “amount of change in blood leukocyte count (Δ in leukocytes (cells/μL))” value is on record as “significantly increased”. Besides, in assay [2], the “activity to inhibit substrate binding of epidermal growth factor receptor (EGFR) tyrosine kinase” value is recorded as “showed an activity to inhibit substrate binding”. For the same compound, in assay [3], the peritesticular fat weight entry was “lower” and the “triglyceride (neutral fat) level in plasma” value is reported as “lower”. Moreover, the “detection of IL-6, IL-12p40, IL-1β, and IL-10” value in assay [4] was “none of IL-6, IL-12p40, IL-1β, and IL-10 was detected”.
